Measured values from paper PMC2807730 (Bioorganic & medicinal chemistry letters, 2009).

Experiments:
Dyrk1A = Dyrk1A (Homo sapiens, UniProt Q13627); test: Dyrk1A inhibition; assay type: biochemical; settings: data not shown
Clk4 [1] = molecular target: T1, Clk4 (Homo sapiens, UniProt Q9HAZ1); test: bioluminescent, luciferase-based Clk4 assay
Clk4 [2] = molecular target: T1, Clk4; settings: cited from earlier work
Clk1 = Clk1 (Homo sapiens, UniProt P49759); settings: cited from earlier work
Sequence of Clk1 (P49759 whole entry): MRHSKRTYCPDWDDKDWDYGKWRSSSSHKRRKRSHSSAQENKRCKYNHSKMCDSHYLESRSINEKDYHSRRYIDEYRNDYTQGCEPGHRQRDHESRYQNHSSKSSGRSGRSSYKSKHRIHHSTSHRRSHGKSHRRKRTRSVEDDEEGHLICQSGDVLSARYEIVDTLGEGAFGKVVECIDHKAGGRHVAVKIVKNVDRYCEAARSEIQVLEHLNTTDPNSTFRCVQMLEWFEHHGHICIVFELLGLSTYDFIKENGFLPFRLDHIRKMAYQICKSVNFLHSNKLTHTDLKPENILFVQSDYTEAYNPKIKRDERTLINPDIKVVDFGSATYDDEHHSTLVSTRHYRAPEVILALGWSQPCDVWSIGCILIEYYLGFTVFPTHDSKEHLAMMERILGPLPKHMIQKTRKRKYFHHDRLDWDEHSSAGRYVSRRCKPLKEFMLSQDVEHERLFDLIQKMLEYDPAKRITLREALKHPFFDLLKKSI

T1 sequence (Q9HAZ1 whole entry): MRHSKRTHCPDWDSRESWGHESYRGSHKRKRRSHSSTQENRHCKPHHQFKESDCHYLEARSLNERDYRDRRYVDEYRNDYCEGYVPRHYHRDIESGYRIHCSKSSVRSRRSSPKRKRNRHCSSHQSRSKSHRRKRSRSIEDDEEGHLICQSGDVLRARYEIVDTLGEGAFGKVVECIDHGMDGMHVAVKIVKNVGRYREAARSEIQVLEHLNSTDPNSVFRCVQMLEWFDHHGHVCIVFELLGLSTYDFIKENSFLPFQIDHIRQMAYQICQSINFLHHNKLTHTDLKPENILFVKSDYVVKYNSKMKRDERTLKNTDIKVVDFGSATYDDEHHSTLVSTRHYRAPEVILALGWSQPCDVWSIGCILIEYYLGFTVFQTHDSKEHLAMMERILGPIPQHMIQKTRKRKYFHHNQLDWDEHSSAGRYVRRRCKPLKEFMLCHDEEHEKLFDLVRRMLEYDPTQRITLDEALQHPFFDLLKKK

Row | inhibition of Dyrk1A (Dyrk1A) | enzyme inhibition in ATP dose response (Clk4 [1]; compound constant at 70 nM, high ATP concentrations (>200 μM), data not shown) | potency in peptide dose response (Clk4 [1]; compound constant at 70 nM, increasing dose of peptide, data not shown) | change of potency with ATP concentration (Clk4 [1]; dose response at 1, 50, 100 μM ATP (Figure 4A)) | change of potency with peptide substrate concentration (Clk4 [1]; dose response at 50, 100, 200 μM peptide (Figure 4B)) | SMILES | activity versus numerous EGFR mutants (EGFR mutants) [nM] | IC50 values versus Clk4 (Clk4 [2]) | IC50 values versus Clk1 (Clk1)
1 | potent inhibitors | sharp decline in enzyme inhibition | did not effect the potency | loss in potency when ATP levels rise | no affect on the compound potency | c1csc(CNc2ncnc3ccc(-c4ccc5c(c4)OCO5)cc23)c1 [compound 4] | > 250 | – | –
2 | – | – | – | – | – | CCN1/C(=C/C(C)=O)Sc2ccc(OC)cc21 [compound 1] | – | low-nanomolar | low-nanomolar
